In US8580811B2 (Ligand Pharmaceuticals Incorporated, priority 2005, dated 2013):
Read-outs that look alike come from different tables or passages of the source.

Molecular target: T1, human AR (Homo sapiens, UniProt P10275)
T1 construct: expressed in transfected cells; host or cells: COS-1 cells
T1 sequence (P10275 1-920): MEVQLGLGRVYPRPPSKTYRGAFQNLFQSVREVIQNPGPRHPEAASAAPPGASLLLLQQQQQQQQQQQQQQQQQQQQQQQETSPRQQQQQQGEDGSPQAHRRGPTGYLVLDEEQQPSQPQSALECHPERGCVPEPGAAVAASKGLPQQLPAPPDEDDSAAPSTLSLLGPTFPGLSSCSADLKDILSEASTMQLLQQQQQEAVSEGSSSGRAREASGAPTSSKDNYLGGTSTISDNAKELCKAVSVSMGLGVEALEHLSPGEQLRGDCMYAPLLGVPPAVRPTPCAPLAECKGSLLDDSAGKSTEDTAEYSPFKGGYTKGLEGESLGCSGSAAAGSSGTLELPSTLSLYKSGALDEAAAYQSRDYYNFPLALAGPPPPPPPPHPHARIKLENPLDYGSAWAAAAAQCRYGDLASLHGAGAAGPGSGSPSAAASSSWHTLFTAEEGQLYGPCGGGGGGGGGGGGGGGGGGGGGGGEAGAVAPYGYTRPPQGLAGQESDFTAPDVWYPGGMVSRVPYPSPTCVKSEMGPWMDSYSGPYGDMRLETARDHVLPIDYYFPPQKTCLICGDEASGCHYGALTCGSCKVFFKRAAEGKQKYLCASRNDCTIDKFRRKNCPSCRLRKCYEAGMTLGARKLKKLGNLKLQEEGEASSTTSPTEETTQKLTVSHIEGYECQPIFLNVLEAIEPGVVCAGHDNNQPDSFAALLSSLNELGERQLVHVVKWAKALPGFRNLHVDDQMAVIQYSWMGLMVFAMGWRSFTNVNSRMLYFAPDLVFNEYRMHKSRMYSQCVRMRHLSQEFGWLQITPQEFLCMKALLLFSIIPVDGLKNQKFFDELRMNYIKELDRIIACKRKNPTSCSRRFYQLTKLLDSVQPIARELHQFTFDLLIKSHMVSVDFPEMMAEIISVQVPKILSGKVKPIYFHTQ
Assay: IR Binding Assay: whole cell competitive binding of test compounds against 3H-DHT in COS-1 cells transfected with pRShAR
Summary of the method: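 COS-1 cells transfected with pRShAR plus β-Gal reporter, serum-starved 24 h, then exposed to 1 nM ³H-DHT with compounds at 10^−10 to 10^−6 M for 3 h at 37 °C. Bound ³H-DHT counted in lysates, normalized to β-Gal. IC50 from log-logit plot; Ki via Cheng-Prusoff using Kd from Scatchard saturation analysis.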

SMILES	Ki [nM]	Ki (competition with 1 nM 3H-DHT, transfected COS-1 cells, 3 h at 37° C., Cheng-Prusoff from IC50, read-out: Ki) [nM]
CC(=O)OCCn1c(C)c(C)c2c3c(C(F)(F)F)cc(=O)[nH]c3ccc21 [Compound 241, 3-(2-Acetoxyethyl)-1,2-Dimethyl-9-trifluoromethyl-3,6-dihydro-pyrrolo[3,2-f]quinolin-7-one]	5 to 10	
Cc1c(C)n(CC(F)F)c2ccc3[nH]c(=O)cc(Cl)c3c12 [Compound 191, 9-Chloro-3-(2,2-difluoroethyl)-1,2-dimethyl-3,6-dihydro-pyrrolo[3,2-f]quinolin-7-one]	< 5	
Cc1ccc(-c2c(C)c3c4c(Cl)cc(=O)[nH]c4ccc3n2CC(F)(F)F)o1 [Compound 256, 9-Chloro-1-methyl-2-(5-methyl-2-furyl)-3-(2,2,2-trifluoroethyl)-3,6-dihydro-pyrrolo[3,2-f]-quinolin-7-one]		< 5
Cc1c(C)n(CCO)c2ccc3[nH]c(=O)cc(Cl)c3c12 [Compound 190, 9-Chloro-3-(2-hydroxy-ethyl)-1,2-dimethyl-3,6-dihydro-pyrrolo[3,2-f]quinolin-7-one]	> 10	
Cc1c(C)n(CCC(C)(C)O)c2ccc3[nH]c(=O)cc(C(F)(F)F)c3c12 [Compound 239, 3-(3-Hydroxy-3-methyl-butyl)-1,2-dimethyl-9-trifluoromethyl-3,6-dihydro-pyrrolo[3,2-f]-quinolin-7-one]	> 10	
